Activity calls are given as the source filed them. No rule for the calls is given here.
Test system: CCRIS mutagenicity, Ames/micronucleus/aberration tests
Assay: CCRIS mutagenicity studies
[1] = Test System: AMES SALMONELLA TYPHIMURIUM, Strain/Indicator: TA98, Metabolic Activation: NONE, Method: STANDARD PLATE
[2] = Test System: AMES SALMONELLA TYPHIMURIUM, Strain/Indicator: TA100, Metabolic Activation: NONE, Method: STANDARD PLATE
[3] = Test System: AMES SALMONELLA TYPHIMURIUM, Strain/Indicator: TA98, Metabolic Activation: NONE, Method: PREINCUBATION
[4] = Test System: AMES SALMONELLA TYPHIMURIUM, Strain/Indicator: TA100, Metabolic Activation: NONE, Method: PREINCUBATION

O=[N+]([O-])c1cc2ccccc2c2c([N+](=O)[O-])cccc12
mutagenic call (Test System: AMES SALMONELLA TYPHIMURIUM, Strain/Indicator: TA98(1,8-DNP6), Metabolic Activation: NONE, Method: STANDARD PLATE): active; positive
mutagenic call (Test System: AMES SALMONELLA TYPHIMURIUM, Strain/Indicator: TA98(NR), Metabolic Activation: NONE, Method: STANDARD PLATE): active; positive
mutagenic call [1]: active; positive
mutagenic call [2]: active; positive
mutagenic call (Test System: AMES SALMONELLA TYPHIMURIUM, Strain/Indicator: YG1021, Metabolic Activation: NONE, Method: STANDARD PLATE): active; positive
mutagenic call (Test System: AMES SALMONELLA TYPHIMURIUM, Strain/Indicator: YG1024, Metabolic Activation: NONE, Method: STANDARD PLATE): active; positive
mutagenic call (Test System: AMES SALMONELLA TYPHIMURIUM, Strain/Indicator: YG1026, Metabolic Activation: NONE, Method: STANDARD PLATE): active; positive
mutagenic call (Test System: AMES SALMONELLA TYPHIMURIUM, Strain/Indicator: YG1029, Metabolic Activation: NONE, Method: STANDARD PLATE): active; positive

CC(=O)OCCC(C)C
mutagenic call (Test System: AMES SALMONELLA TYPHIMURIUM, Strain/Indicator: TA97, Metabolic Activation: HAMSTER, LIVER, S-9, AROCLOR 1254 (10%), Method: PREINCUBATION): inactive; negative
mutagenic call (Test System: AMES SALMONELLA TYPHIMURIUM, Strain/Indicator: TA97, Metabolic Activation: HAMSTER, LIVER, S-9, AROCLOR 1254 (30%), Method: PREINCUBATION): inactive; negative
mutagenic call (Test System: AMES SALMONELLA TYPHIMURIUM, Strain/Indicator: TA97, Metabolic Activation: NONE, Method: PREINCUBATION): inactive; negative
mutagenic call (Test System: AMES SALMONELLA TYPHIMURIUM, Strain/Indicator: TA97, Metabolic Activation: RAT, LIVER, S-9, AROCLOR 1254 (10%), Method: PREINCUBATION): inactive; negative
mutagenic call (Test System: AMES SALMONELLA TYPHIMURIUM, Strain/Indicator: TA97, Metabolic Activation: RAT, LIVER, S-9, AROCLOR 1254 (30%), Method: PREINCUBATION): inactive; negative
mutagenic call (Test System: AMES SALMONELLA TYPHIMURIUM, Strain/Indicator: TA98, Metabolic Activation: HAMSTER, LIVER, S-9, AROCLOR 1254 (10%), Method: PREINCUBATION): inactive; negative
mutagenic call (Test System: AMES SALMONELLA TYPHIMURIUM, Strain/Indicator: TA98, Metabolic Activation: HAMSTER, LIVER, S-9, AROCLOR 1254 (30%), Method: PREINCUBATION): inactive; negative
mutagenic call [3]: inactive; negative
mutagenic call (Test System: AMES SALMONELLA TYPHIMURIUM, Strain/Indicator: TA98, Metabolic Activation: RAT, LIVER, S-9, AROCLOR 1254 (10%), Method: PREINCUBATION): inactive; negative
mutagenic call (Test System: AMES SALMONELLA TYPHIMURIUM, Strain/Indicator: TA98, Metabolic Activation: RAT, LIVER, S-9, AROCLOR 1254 (30%), Method: PREINCUBATION): inactive; negative
mutagenic call (Test System: AMES SALMONELLA TYPHIMURIUM, Strain/Indicator: TA100, Metabolic Activation: HAMSTER, LIVER, S-9, AROCLOR 1254 (10%), Method: PREINCUBATION): inactive; negative
mutagenic call (Test System: AMES SALMONELLA TYPHIMURIUM, Strain/Indicator: TA100, Metabolic Activation: HAMSTER, LIVER, S-9, AROCLOR 1254 (30%), Method: PREINCUBATION): inactive; negative
mutagenic call [4]: inactive; negative
mutagenic call (Test System: AMES SALMONELLA TYPHIMURIUM, Strain/Indicator: TA100, Metabolic Activation: RAT, LIVER, S-9, AROCLOR 1254 (10 OR 30%), Method: PREINCUBATION): inactive; negative
mutagenic call (Test System: AMES SALMONELLA TYPHIMURIUM, Strain/Indicator: TA1535, Metabolic Activation: HAMSTER, LIVER, S-9, AROCLOR 1254 (10%), Method: PREINCUBATION): inactive; negative
mutagenic call (Test System: AMES SALMONELLA TYPHIMURIUM, Strain/Indicator: TA1535, Metabolic Activation: HAMSTER, LIVER, S-9, AROCLOR 1254 (30%), Method: PREINCUBATION): inactive; negative
mutagenic call (Test System: AMES SALMONELLA TYPHIMURIUM, Strain/Indicator: TA1535, Metabolic Activation: NONE, Method: PREINCUBATION): inactive; negative
mutagenic call (Test System: AMES SALMONELLA TYPHIMURIUM, Strain/Indicator: TA1535, Metabolic Activation: RAT, LIVER, S-9, AROCLOR 1254 (10%), Method: PREINCUBATION): inactive; negative
mutagenic call (Test System: AMES SALMONELLA TYPHIMURIUM, Strain/Indicator: TA1535, Metabolic Activation: RAT, LIVER, S-9, AROCLOR 1254 (30%), Method: PREINCUBATION): inactive; negative
mutagenic call (Test System: AMES SALMONELLA TYPHIMURIUM, Strain/Indicator: TA1537, Metabolic Activation: HAMSTER, LIVER, S-9, AROCLOR 1254 (30%), Method: PREINCUBATION): inactive; negative
mutagenic call (Test System: AMES SALMONELLA TYPHIMURIUM, Strain/Indicator: TA1537, Metabolic Activation: NONE, Method: PREINCUBATION): inactive; negative
mutagenic call (Test System: AMES SALMONELLA TYPHIMURIUM, Strain/Indicator: TA1537, Metabolic Activation: RAT, LIVER, S-9, AROCLOR 1254 (30%), Method: PREINCUBATION): inactive; negative

O=CC1=CCCC2CC12C=O (stereo not drawn)
mutagenic call [1]: active; positive
mutagenic call [2]: active; positive

CC(=O)O.CC(=O)O.[O]=[U]=[O]
mutagenic call (Test System: Chinese hamster ovary cells, Strain/Indicator: EM9 (HPRT)/6-Thioguanine, Metabolic Activation: None): active; positive

O=S(=O)(O)OCc1c2ccccc2c(CO)c2c1ccc1ccccc12
mutagenic call [3]: active; positive

Cc1cc2nc3c(=O)[nH]c(=O)nc-3n(C[C@H](O)[C@H](O)[C@H](O)CO)c2cc1C
mutagenic call (End Point: IN VIVO MICRONUCLEUS, Test System: BONE MARROW POLYCHROMATIC ERYTHROCYTES, Species: MOUSE, Strain/Sex: DDY/MALE, Route: IP): inactive; negative
mutagenic call (Test System: AMES SALMONELLA TYPHIMURIUM, Strain/Indicator: TA97A, Metabolic Activation: NONE, Method: PREINCUBATION): inactive; negative
mutagenic call (Test System: AMES SALMONELLA TYPHIMURIUM, Strain/Indicator: TA97A, Metabolic Activation: RAT, CECAL CELL-FREE EXTRACT, Method: PREINCUBATION): inactive; negative
mutagenic call (Test System: AMES SALMONELLA TYPHIMURIUM, Strain/Indicator: TA97A, Metabolic Activation: RAT, LIVER, S9, AROCLOR 1254, Method: PREINCUBATION): inactive; negative
mutagenic call [3]: inactive; negative
mutagenic call (Test System: AMES SALMONELLA TYPHIMURIUM, Strain/Indicator: TA98, Metabolic Activation: RAT, CECAL CELL-FREE EXTRACT, Method: PREINCUBATION): inactive; negative
mutagenic call (Test System: AMES SALMONELLA TYPHIMURIUM, Strain/Indicator: TA98, Metabolic Activation: RAT, LIVER, S9, AROCLOR 1254, Method: PREINCUBATION): inactive; negative
mutagenic call [4]: inactive; negative
mutagenic call (Test System: AMES SALMONELLA TYPHIMURIUM, Strain/Indicator: TA100, Metabolic Activation: RAT, CECAL CELL-FREE EXTRACT, Method: PREINCUBATION): inactive; negative
mutagenic call (Test System: AMES SALMONELLA TYPHIMURIUM, Strain/Indicator: TA100, Metabolic Activation: RAT, LIVER, S9, AROCLOR 1254, Method: PREINCUBATION): inactive; negative
mutagenic call (Test System: AMES SALMONELLA TYPHIMURIUM, Strain/Indicator: TA102, Metabolic Activation: RAT, LIVER, S9, AROCLOR 1254, Method: PREINCUBATION): inactive; negative

c1ccc2c(c1)ccc1c2ccc2cccnc21
mutagenic call [1]: inactive; negative
mutagenic call (Test System: AMES SALMONELLA TYPHIMURIUM, Strain/Indicator: TA98, Metabolic Activation: RAT, LIVER, S-9, AROCLOR 1254, Method: STANDARD PLATE): active; positive
mutagenic call (Test System: AMES SALMONELLA TYPHIMURIUM, Strain/Indicator: TA100, Metabolic Activation: RAT, LIVER, S-9, AROCLOR 1254, Method: STANDARD PLATE): active; positive

Cc1ccc(S(=O)(=O)OC(C)C)cc1
mutagenic call (End Point: IN VITRO MICRONUCLEUS, Test System: MOUSE LYMPHOMA L5178Y CELLS, Metabolic Activation: NONE): active; positive
mutagenic call (End Point: IN VITRO MICRONUCLEUS, Test System: MOUSE LYMPHOMA L5178Y CELLS, Metabolic Activation: RAT, LIVER, S-9): active; positive
mutagenic call (End Point: In vitro micronucleus, Test System: Chinese Hamster Ovary (CHO-WBL) cells, Metabolic Activation: None): active; positive (p<0.05)
mutagenic call [2]: active; positive
mutagenic call (Test System: AMES SALMONELLA TYPHIMURIUM, Strain/Indicator: TA100, Metabolic Activation: RAT, LIVER, S-9, Method: STANDARD PLATE): active; positive
